How the values were obtained:
[1] = test system: rice; assay: Test C flood test plant response rating 0 to 100; assay type: in vivo, Oryza sativa; conditions: for Plant response rating Rice Japonica: flood test species listed under POSTEMERGENCE, 0 to 100 scale
Outline: (§1)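 Compounds in non-phytotoxic solvent applied preemergence to sandy loam one day after planting, postemergence at the 1–4 leaf stage, or to ~2.5 cm floodwater over silt loam.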

[2] = test system: blackgrass; assay: Test C preemergence/postemergence greenhouse plant response rating 0 to 100; assay type: in vivo, Alopecurus myosuroides; conditions: for Plant response rating, Blackgrass: 0 to 100 scale
Outline: (§2)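 Compounds in non-phytotoxic solvent went onto sandy loam before emergence (seeded one day earlier) or onto plants at the one-to-four leaf stage. Duck salad was treated via flood water (~2.5 cm, maintained) over silt loam.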

[3] = test system: rape; assay: as above; assay type: in vivo, Brassica napus; conditions: for Plant response rating, Rape: 0 to 100 scale
Outline: as §2

[4] = test system: wild oat; assay: Test B preemergence/postemergence greenhouse plant response rating 0 to 10; assay type: in vivo, Avena fatua; conditions: 0 to 10 scale
Outline: (§3)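 Both application timings were run together: seeds got compound preemergence, and established seedlings (two to eighteen cm) got it postemergence. Non-phytotoxic solvent carried the chemical. Ratings are visual, versus controls, at twelve to sixteen days.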

[5] = test system: barnyardgrass; assay: as above; assay type: in vivo, Echinochloa crus-galli; conditions: 0 to 10 scale
Outline: as §3

[6] = test system: cotton; assay: as above; assay type: in vivo, Gossypium hirsutum; conditions: 0 to 10 scale
Outline: as §3

[7] = test system: crabgrass; assay: Test C preemergence/postemergence greenhouse plant response rating 0 to 100; assay type: in vivo, Digitaria sanguinalis; conditions: for Plant response rating, Crabgrass: 0 to 100 scale
Outline: as §2

[8] = test system: rice; assay: Test B preemergence/postemergence greenhouse plant response rating 0 to 10; assay type: in vivo, Oryza sativa; conditions: 0 to 10 scale
Outline: as §3

[9] = test system: sorghum; assay: as above; assay type: in vivo, Sorghum bicolor; conditions: 0 to 10 scale
Outline: as §3

[10] = test system: cocklebur; assay: as above; assay type: in vivo, Xanthium pensylvanicum; conditions: 0 to 10 scale
Outline: as §3

[11] = test system: umbrella sedge; assay: Test C flood test plant response rating 0 to 100; assay type: in vivo, Cyperus difformis; conditions: for Plant response rating Umbrella sedge: flood test species listed under POSTEMERGENCE, 0 to 100 scale
Outline: as §1

[12] = test system: morningglory; assay: Test B preemergence/postemergence greenhouse plant response rating 0 to 10; assay type: in vivo, Ipomoea hederacea; conditions: 0 to 10 scale
Outline: as §3

[13] = test system: wheat; assay: as above; assay type: in vivo, Triticum aestivum; conditions: 0 to 10 scale
Outline: as §3

[14] = POSTEMERGENCE section, flood test, Rate 4 g/ha
[15] = Rate 16 g/ha, under POSTEMERGENCE head (flood test species)
[16] = POSTEMERGENCE section, flood test, Rate 2 g/ha
[17] = Rate 8 g/ha, under POSTEMERGENCE head (flood test species)
[18] = Rate 31 g/ha, under POSTEMERGENCE head (flood test species)

C#CC(C)N1C(=O)COc2cc(F)c(-c3nn4c(c3Cl)CCCC4)cc21 (centres unmarked) [Compound 50]
Plant response rating (0 to 100), Rice Japonica [1, 14]: 25 | Plant response rating (0 to 100), Rice Japonica [1, 15]: 60 | Plant response rating Rice Japonica ([1]; 62 g/ha): 65 | Plant response rating Rice Japonica ([1]; 250 g/ha): 90 | Plant response rating, Blackgrass ([2]; POSTEMERGENCE, 62 g/ha): 60 | Plant response rating, Blackgrass ([2]; POSTEMERGENCE, 250 g/ha): 60 | Plant response rating (0 to 100), Blackgrass ([2]; POSTEMERGENCE, Rate 1 g/ha): 20 | Plant response rating (0 to 100), Blackgrass ([2]; POSTEMERGENCE, Rate 4 g/ha): 30 | Plant response rating (0 to 100), Blackgrass ([2]; Rate 16 g/ha, POSTEMERGENCE): 50 | Plant response rating, Rape ([3]; POSTEMERGENCE, 62 g/ha): 100 | Plant response rating, Rape ([3]; POSTEMERGENCE, 250 g/ha): 100 | Plant response rating (0 to 100), Rape ([3]; POSTEMERGENCE, Rate 1 g/ha): 0 | Plant response rating (0 to 100), Rape ([3]; POSTEMERGENCE, Rate 4 g/ha): 0 | Plant response rating (0 to 100), Rape ([3]; Rate 16 g/ha, POSTEMERGENCE): 50 | Plant response rating, Wild oat ([4]; POSTEMERGENCE, Rate 10 g/ha): 3 | Plant response rating, Wild oat ([4]; POSTEMERGENCE, Rate 50 g/ha): 4 | Plant response rating, Wild oat ([4]; PREEMERGENCE, Rate 50 g/ha): 3 | Plant response rating, Barnyardgrass ([5]; POSTEMERGENCE, Rate 10 g/ha): 3 | Plant response rating, Barnyardgrass ([5]; POSTEMERGENCE, Rate 50 g/ha): 4 | Plant response rating, Barnyardgrass ([5]; PREEMERGENCE, Rate 10 g/ha): 0 | Plant response rating, Barnyardgrass ([5]; PREEMERGENCE, Rate 50 g/ha): 0 | Plant response rating, Cotton ([6]; POSTEMERGENCE, Rate 10 g/ha): 9 | Plant response rating, Cotton ([6]; POSTEMERGENCE, Rate 50 g/ha): 10 | Plant response rating, Cotton ([6]; PREEMERGENCE, Rate 10 g/ha): 0 | Plant response rating, Cotton ([6]; PREEMERGENCE, Rate 50 g/ha): 0 | Plant response rating, Crabgrass ([7]; POSTEMERGENCE, 62 g/ha): 40 | Plant response rating, Crabgrass ([7]; POSTEMERGENCE, 250 g/ha): 50 | Plant response rating (0 to 100), Crabgrass ([7]; POSTEMERGENCE, Rate 1 g/ha): 10 | Plant response rating (0 to 100), Crabgrass ([7]; POSTEMERGENCE, Rate 4 g/ha): 20 | Plant response rating (0 to 100), Crabgrass ([7]; Rate 16 g/ha, POSTEMERGENCE): 20 | Plant response rating, Rice ([8]; POSTEMERGENCE, Rate 10 g/ha): 6 | Plant response rating, Rice ([8]; POSTEMERGENCE, Rate 50 g/ha): 4 | Plant response rating, Rice ([8]; PREEMERGENCE, Rate 50 g/ha): 2 | Plant response rating, Sorghum ([9]; POSTEMERGENCE, Rate 10 g/ha): 4 | Plant response rating, Sorghum ([9]; POSTEMERGENCE, Rate 50 g/ha): 3 | Plant response rating, Sorghum ([9]; PREEMERGENCE, Rate 50 g/ha): 0 | Plant response rating, Cocklebur ([10]; POSTEMERGENCE, Rate 10 g/ha): 9 | Plant response rating, Cocklebur ([10]; POSTEMERGENCE, Rate 50 g/ha): 10 | Plant response rating, Cocklebur ([10]; PREEMERGENCE, Rate 10 g/ha): 0 | Plant response rating, Cocklebur ([10]; PREEMERGENCE, Rate 50 g/ha): 0 | Plant response rating (0 to 100), Umbrella sedge [11, 14]: 0 | Plant response rating (0 to 100), Umbrella sedge [11, 15]: 0 | Plant response rating Umbrella sedge ([11]; 62 g/ha): 75 | Plant response rating Umbrella sedge ([11]; 250 g/ha): 95 | Plant response rating, Morningglory ([12]; POSTEMERGENCE, Rate 10 g/ha): 10 | Plant response rating, Morningglory ([12]; POSTEMERGENCE, Rate 50 g/ha): 10 | Plant response rating, Morningglory ([12]; PREEMERGENCE, Rate 50 g/ha): 2 | Plant response rating, Wheat ([13]; POSTEMERGENCE, Rate 10 g/ha): 4 | Plant response rating, Wheat ([13]; POSTEMERGENCE, Rate 50 g/ha): 4 | Plant response rating, Wheat ([13]; PREEMERGENCE, Rate 50 g/ha): 0

Fc1cc(Cl)ccc1-c1nn2c(c1Br)CCCC2 [Compound 52]
Plant response rating (0 to 100), Rice Japonica [1, 16]: 0 | Plant response rating (0 to 100), Rice Japonica [1, 17]: 20 | Plant response rating (0 to 100), Rice Japonica [1, 18]: 45 | Plant response rating Rice Japonica ([1]; 125 g/ha): 60 | Plant response rating, Blackgrass ([2]; POSTEMERGENCE, 125 g/ha): 60 | Plant response rating (0 to 100), Blackgrass ([2]; POSTEMERGENCE, Rate 2 g/ha): 10 | Plant response rating, Blackgrass ([2]; PREEMERGENCE, 125 g/ha): 50 | Plant response rating (0 to 100), Blackgrass ([2]; PREEMERGENCE, Rate 2 g/ha): 0 | Plant response rating (0 to 100), Blackgrass ([2]; Rate 8 g/ha, POSTEMERGENCE): 20 | Plant response rating (0 to 100), Blackgrass ([2]; Rate 8 g/ha, PREEMERGENCE): 0 | Plant response rating (0 to 100), Blackgrass ([2]; Rate 31 g/ha, POSTEMERGENCE): 40 | Plant response rating (0 to 100), Blackgrass ([2]; Rate 31 g/ha, PREEMERGENCE): 0 | Plant response rating, Rape ([3]; POSTEMERGENCE, 125 g/ha): 100 | Plant response rating (0 to 100), Rape ([3]; POSTEMERGENCE, Rate 2 g/ha): 10 | Plant response rating, Rape ([3]; PREEMERGENCE, 125 g/ha): 60 | Plant response rating (0 to 100), Rape ([3]; PREEMERGENCE, Rate 2 g/ha): 0 | Plant response rating (0 to 100), Rape ([3]; Rate 8 g/ha, POSTEMERGENCE): 40 | Plant response rating (0 to 100), Rape ([3]; Rate 8 g/ha, PREEMERGENCE): 0 | Plant response rating (0 to 100), Rape ([3]; Rate 31 g/ha, POSTEMERGENCE): 70 | Plant response rating (0 to 100), Rape ([3]; Rate 31 g/ha, PREEMERGENCE): 10 | Plant response rating, Wild oat ([4]; POSTEMERGENCE, Rate 50 g/ha): 5 | Plant response rating, Wild oat ([4]; PREEMERGENCE, Rate 50 g/ha): 4 | Plant response rating, Wild oat ([4]; Rate 200 g/ha, POSTEMERGENCE): 8 | Plant response rating, Barnyardgrass ([5]; POSTEMERGENCE, Rate 50 g/ha): 9 | Plant response rating, Barnyardgrass ([5]; POSTEMERGENCE, Rate 200 g/ha): 9 | Plant response rating, Barnyardgrass ([5]; PREEMERGENCE, Rate 50 g/ha): 5 | Plant response rating, Barnyardgrass ([5]; Rate 200 g/ha, PREEMERGENCE): 9 | Plant response rating, Cotton ([6]; POSTEMERGENCE, Rate 50 g/ha): 10 | Plant response rating, Cotton ([6]; POSTEMERGENCE, Rate 200 g/ha): 10 | Plant response rating, Cotton ([6]; PREEMERGENCE, Rate 50 g/ha): 0 | Plant response rating, Cotton ([6]; Rate 200 g/ha, PREEMERGENCE): 3 | Plant response rating, Crabgrass ([7]; POSTEMERGENCE, 125 g/ha): 70 | Plant response rating (0 to 100), Crabgrass ([7]; POSTEMERGENCE, Rate 2 g/ha): 10 | Plant response rating, Crabgrass ([7]; PREEMERGENCE, 125 g/ha): 80 | Plant response rating (0 to 100), Crabgrass ([7]; PREEMERGENCE, Rate 2 g/ha): 0 | Plant response rating (0 to 100), Crabgrass ([7]; Rate 8 g/ha, POSTEMERGENCE): 30 | Plant response rating (0 to 100), Crabgrass ([7]; Rate 8 g/ha, PREEMERGENCE): 0 | Plant response rating (0 to 100), Crabgrass ([7]; Rate 31 g/ha, POSTEMERGENCE): 40 | Plant response rating (0 to 100), Crabgrass ([7]; Rate 31 g/ha, PREEMERGENCE): 10 | Plant response rating, Rice ([8]; POSTEMERGENCE, Rate 50 g/ha): 4 | Plant response rating, Rice ([8]; PREEMERGENCE, Rate 50 g/ha): 0 | Plant response rating, Rice ([8]; Rate 200 g/ha, POSTEMERGENCE): 6 | Plant response rating, Rice ([8]; Rate 200 g/ha, PREEMERGENCE): 1 | Plant response rating, Sorghum ([9]; POSTEMERGENCE, Rate 50 g/ha): 4 | Plant response rating, Sorghum ([9]; PREEMERGENCE, Rate 50 g/ha): 2 | Plant response rating, Sorghum ([9]; Rate 200 g/ha, POSTEMERGENCE): 7 | Plant response rating, Sorghum ([9]; Rate 200 g/ha, PREEMERGENCE): 3 | Plant response rating, Cocklebur ([10]; POSTEMERGENCE, Rate 50 g/ha): 6 | Plant response rating, Cocklebur ([10]; POSTEMERGENCE, Rate 200 g/ha): 8 | Plant response rating, Cocklebur ([10]; PREEMERGENCE, Rate 50 g/ha): 0 | Plant response rating, Cocklebur ([10]; Rate 200 g/ha, PREEMERGENCE): 0 | Plant response rating (0 to 100), Umbrella sedge [11, 16]: 10 | Plant response rating (0 to 100), Umbrella sedge [11, 17]: 20 | Plant response rating (0 to 100), Umbrella sedge [11, 18]: 25 | Plant response rating Umbrella sedge ([11]; 125 g/ha): 80 | Plant response rating, Morningglory ([12]; POSTEMERGENCE, Rate 50 g/ha): 9 | Plant response rating, Morningglory ([12]; PREEMERGENCE, Rate 50 g/ha): 0 | Plant response rating, Morningglory ([12]; Rate 200 g/ha, POSTEMERGENCE): 9 | Plant response rating, Morningglory ([12]; Rate 200 g/ha, PREEMERGENCE): 2 | Plant response rating, Wheat ([13]; POSTEMERGENCE, Rate 50 g/ha): 4 | Plant response rating, Wheat ([13]; PREEMERGENCE, Rate 50 g/ha): 4 | Plant response rating, Wheat ([13]; Rate 200 g/ha, POSTEMERGENCE): 8 | Plant response rating, Wheat ([13]; Rate 200 g/ha, PREEMERGENCE): 7
